Experimental data from the supplement of paper PMC10307832.

Tests used:
Assay in all cases: relative viability (nuclei count vs DMSO), 5 days (fraction); higher = more cells survive
[1] = compound: CCOC(=O)CCNc1cc(N2CCc3ccccc3CC2)nc(-c2ccccn2)n1 [GSK-J4] + NC(=O)Nc1cc(-c2cccc(F)c2)sc1C(=O)N[C@H]1CCCNC1 [AZD7762] (partner 0.2 µM)
Summary of the method: (§1)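 Five library-drug doses in √10 steps were combined with a fixed anchor-drug dose, or a single drug was given alone, by pin tool to lung cancer cell lines in 1536-well plates the day after seeding. Nuclei were stained and counted after 5 days. Relative viability is the nuclei count in treated wells over that in vehicle wells, taken as the median of duplicate plates.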

[2] = compound: CCOC(=O)CCNc1cc(N2CCc3ccccc3CC2)nc(-c2ccccn2)n1 [GSK-J4] + CC(=O)c1c(C)c2cnc(Nc3ccc(N4CCNCC4)cn3)nc2n(C2CCCC2)c1=O [Palbociclib] (partner 0.5 µM)
Summary of the method: as §1

[3] = compound: CN1CCC(CC1)OC2=CC(=C(C=C2)NC3=NC=C4C(=N3)N(C(=O)N4C)C5CCCC5)OC [AZ3146] + CC(=O)c1c(C)c2cnc(Nc3ccc(N4CCNCC4)cn3)nc2n(C2CCCC2)c1=O [Palbociclib] (partner 0.5 µM)
Summary of the method: as §1

[4] = compound: CCOC(=O)CCNc1cc(N2CCc3ccccc3CC2)nc(-c2ccccn2)n1 [GSK-J4] + CCNC(=O)c1noc(-c2cc(C(C)C)c(O)cc2O)c1-c1ccc(CN2CCOCC2)cc1 [Luminespib] (partner 0.01 µM)
Summary of the method: as §1

Row | Cell Line | relative viability ([1]; first compound 0.5 µM) | relative viability ([1]; first compound 1.581 µM) | relative viability ([1]; first compound 5 µM) | relative viability ([1]; first compound 15.81 µM) | relative viability ([1]; first compound 50 µM) | relative viability ([2]; first compound 0.5 µM) | relative viability ([2]; first compound 1.581 µM) | relative viability ([2]; first compound 5 µM) | relative viability ([2]; first compound 15.81 µM) | relative viability ([2]; first compound 50 µM) | relative viability ([3]; first compound 0.08 µM) | relative viability ([3]; first compound 0.253 µM) | relative viability ([3]; first compound 0.8 µM) | relative viability ([3]; first compound 2.53 µM) | relative viability ([3]; first compound 8 µM) | relative viability ([4]; first compound 0.5 µM) | relative viability ([4]; first compound 1.581 µM) | relative viability ([4]; first compound 5 µM) | relative viability ([4]; first compound 15.81 µM) | relative viability ([4]; first compound 50 µM)
1 | LCLC-103H | 0.811 | 0.76 | 0.525 | 0.69 | 0.65 | 0.447 | 0.36 | 0.455 | 0.449 | 0.49 | 0.415 | 0.458 | 0.495 | 0.446 | 0.444 | 0.96 | 0.917 | 1.01 | 0.882 | 0.486
2 | NCI-H1944 | 0.492 | 0.64 | – | 0.414 | 0.427 | 0.378 | 0.334 | – | 0.274 | 0.342 | 0.302 | 0.322 | 0.298 | 0.39 | 0.326 | 0.762 | 0.711 | 0.851 | 0.649 | 0.799
3 | NCI-H358 | 0.598 | 0.576 | 0.692 | 0.606 | 0.44 | 0.139 | – | 0.154 | 0.104 | 0.138 | 0.141 | 0.139 | 0.123 | 0.135 | 0.101 | 0.292 | 0.304 | 0.354 | 0.397 | 0.337
4 | NCI-H2126 | 1 | 0.928 | 1.05 | 0.891 | 0.89 | 0.374 | 0.397 | 0.356 | 0.333 | 0.358 | 0.336 | 0.33 | 0.375 | 0.333 | 0.339 | 0.796 | 0.867 | 0.876 | 0.82 | 0.651
5 | PC-14 | 0.503 | 0.316 | – | 0.315 | 0.343 | 0.471 | 0.624 | 0.454 | 0.518 | 0.544 | 0.524 | 0.606 | 0.518 | 0.571 | 0.0919 | 0.216 | 0.159 | 0.151 | 0.126 | 0.125
6 | LXF-289 | 1.09 | 0.836 | 0.742 | 1.07 | 0.987 | 0.588 | 0.546 | 0.58 | 0.555 | 0.533 | 0.574 | 0.603 | 0.564 | 0.595 | 0.579 | 0.648 | 0.639 | 0.785 | 0.627 | 0.507
7 | NCI-H441 | 1.12 | 1 | 1.05 | 1.01 | 0.967 | 0.235 | 0.202 | 0.241 | 0.221 | 0.161 | 0.216 | 0.199 | 0.211 | 0.265 | 0.204 | 0.303 | 0.298 | 0.476 | 0.394 | 0.308
8 | NCI-H727 | 0.425 | 0.54 | 0.728 | 0.585 | 0.341 | 0.648 | 0.683 | 0.696 | 0.593 | 0.528 | 0.663 | 0.624 | 0.675 | 0.627 | 0.659 | 0.299 | 0.402 | 0.244 | 0.336 | 0.369
9 | NCI-H838 | 0.971 | 0.681 | 0.76 | 0.874 | 0.789 | 0.222 | 0.204 | 0.158 | 0.194 | 0.226 | 0.219 | 0.202 | 0.205 | 0.239 | 0.161 | 0.299 | 0.335 | – | 0.247 | 0.168
10 | NCI-H1793 | 0.595 | 0.324 | 0.215 | 0.151 | 0.156 | 0.298 | 0.264 | 0.28 | 0.204 | 0.162 | 0.269 | 0.292 | 0.311 | 0.374 | 0.321 | 0.261 | 0.192 | 0.18 | 0.258 | 0.134
11 | NCI-H1792 | 0.771 | 0.534 | 0.325 | 0.674 | 0.457 | 0.622 | – | 0.773 | 0.569 | 0.668 | 0.507 | 0.664 | – | 0.679 | 0.669 | 0.46 | – | 0.533 | 0.358 | 0.454
12 | NCI-H1355 | 0.731 | 0.693 | 0.516 | 0.532 | 0.584 | 0.372 | 0.375 | 0.415 | 0.35 | 0.356 | 0.396 | 0.402 | 0.405 | 0.406 | 0.388 | 0.691 | 0.701 | 0.77 | 0.513 | 0.651
13 | HARA | 0.349 | 0.36 | – | 0.218 | 0.161 | 0.242 | 0.247 | 0.23 | 0.234 | 0.3 | 0.274 | 0.239 | 0.266 | 0.241 | 0.243 | 0.585 | – | – | 0.675 | 0.49
14 | 201T | 0.602 | 0.673 | 0.581 | 0.561 | 0.609 | 0.359 | 0.358 | 0.361 | 0.326 | 0.352 | 0.327 | 0.359 | 0.382 | 0.348 | 0.347 | 1.05 | 1.1 | 1.12 | 1.02 | 0.992
15 | NCI-H23 | 0.206 | 0.388 | 0.254 | 0.239 | 0.265 | 0.483 | 0.398 | 0.48 | 0.375 | 0.42 | 0.503 | 0.515 | 0.494 | 0.513 | 0.473 | 0.212 | 0.197 | 0.215 | 0.209 | 0.201
16 | LC-2-ad | 0.845 | 0.756 | 0.634 | 0.785 | 0.81 | 0.438 | 0.404 | 0.447 | 0.49 | 0.47 | 0.419 | 0.546 | 0.475 | 0.455 | 0.453 | 0.851 | 0.889 | 0.701 | 0.886 | 0.54
17 | NCI-H647 | 0.596 | 0.431 | 0.271 | 0.386 | 0.44 | 0.404 | 0.348 | 0.358 | 0.411 | 0.471 | 0.356 | 0.364 | 0.357 | 0.346 | 0.367 | 0.29 | 0.125 | 0.235 | 0.166 | 0.125
18 | NCI-H1915 | 0.614 | 0.728 | – | 0.592 | 0.722 | 0.533 | 0.514 | – | 0.481 | 0.514 | 0.431 | 0.571 | 0.564 | 0.573 | 0.491 | 0.824 | 0.791 | – | 0.657 | 0.613
19 | NCI-H2087 | 1.09 | 1.25 | 1.05 | 1.23 | 0.8 | 0.256 | 0.243 | 0.282 | 0.24 | 0.227 | 0.181 | 0.235 | 0.244 | 0.267 | 0.206 | 0.172 | – | 0.166 | 0.162 | 0.174
20 | NCI-H2085 | 0.926 | 0.896 | 0.888 | 0.792 | 0.936 | 0.451 | 0.434 | 0.386 | 0.495 | 0.494 | 0.489 | 0.472 | 0.475 | 0.497 | 0.432 | 0.477 | 0.394 | 0.419 | 0.41 | 0.309
